Experimental data taken from PMC10354048 (Communications Chemistry, 2023).
≈ marks a conversion by molar mass, not a printed value. Where no end group is shown, it is not given here.

Tests used:
Test in all cases: microbe, parasite or virus in culture
[1] = system: S. aureus AC29213; conditions: for MIC: Staphylococcus aureus, AC29213, 20 h, read-out: Minimum inhibitory concentration S. aureus AC29213; for Minimum inhibitory concentration S. aureus AC29213: broth microdilution per CSLI guidelines, cation-adjusted Mueller Hinton Broth 2, 5 × 10^5 CFU/mL, 37 °C, 20 h, range 64–0.125 µg/mL, average of three repeat assays
Experimental: (§1) Minimum inhibitory concentrations, determined by broth microdilution, are expressed as an average of three repeat assays. […] [a] MIC values expressed in μg/mL, [b] AC: American Type Culture Collection strain, [c] CW: CANWARD collection clinical isolate strain.33.
(§2) Minimum Inhibitory Concentrations (MIC) were determined for each of the bacteriocins and controls using a broth microdilution method, as per CSLI guidelines for microbial susceptibility testing. The peptides were dissolved in sterile deionized water to prepare the working stocks, with concentrations determined by UV absorbance at 280 nm[56]. Overnight cultures from the strains of interest were incubated with shaking overnight at 37 °C. Cation-adjusted Mueller Hinton Broth 2 (MHB 2) was used for the S. aureus, and S. epidermidis strains and Brain Heart Infusion (BHI) broth was utilized for the E. faecalis and E. faecium strains. The cultures were prepared and diluted to the turbidity of a 0.5 McFarland standard using MHB or BHI fresh media. Increasing concentrations of the leaderless bacteriocins were added to a 96-well polypropylene plate. The range tested for each bacteriocin was 64–0.125 µg/mL. The bacterial culture was further diluted and mixed in a 1:1 ratio with the bacteriocin solution to yield a final concentration in the wells of 5 × 10^5 CFU/mL. […] A 1:1000 dilution of the growth control was prepared in the respective media and plated onto agar (100 μL) to ensure the correct inoculum concentration (5 × 10^5 CFU/mL indicated by ≈ 50 bacterial colonies). The 96-well and agar plates were incubated at 37 °C, and growth was assessed by the formation of a pellet observable with the naked eye after 20 h. […] Each assay was performed in triplicate.
(§3) Materials and instruments […]
(§4) Minimum Inhibitory Concentration (MIC)
(§5) assays were conducted in 96-Well Clear polypropylene corner notch microplates (Corning, #11313595). For the […]

[2] = system: S. aureus CW114125; conditions: for MIC: Staphylococcus aureus, CW114125, 20 h, read-out: Minimum inhibitory concentration S. aureus CW114125; for Minimum inhibitory concentration S. aureus CW114125: broth microdilution per CSLI guidelines, cation-adjusted Mueller Hinton Broth 2, 5 × 10^5 CFU/mL, 37 °C, 20 h, range 64–0.125 µg/mL, average of three repeat assays
Experimental: as §1, §2, §3, §4, §5

[3] = system: S. epidermidis CW131612; conditions: for MIC: Staphylococcus epidermidis, CW131612, 20 h, read-out: Minimum inhibitory concentration S. epidermidis CW131612; for Minimum inhibitory concentration S. epidermidis CW131612: broth microdilution per CSLI guidelines, cation-adjusted Mueller Hinton Broth 2, 5 × 10^5 CFU/mL, 37 °C, 20 h, range 64–0.125 µg/mL, average of three repeat assays
Experimental: as §1, §2, §3, §4, §5

[4] = system: S. aureus CW113379; conditions: for MIC: Staphylococcus aureus, CW113379, 20 h, read-out: Minimum inhibitory concentration S. aureus CW113379; for Minimum inhibitory concentration S. aureus CW113379: broth microdilution per CSLI guidelines, cation-adjusted Mueller Hinton Broth 2, 5 × 10^5 CFU/mL, 37 °C, 20 h, range 64–0.125 µg/mL, average of three repeat assays
Experimental: as §1, §2, §3, §4, §5

[5] = system: S. aureus CW115852; conditions: for MIC: Staphylococcus aureus, CW115852, 20 h, read-out: Minimum inhibitory concentration S. aureus CW115852; for Minimum inhibitory concentration S. aureus CW115852: broth microdilution per CSLI guidelines, cation-adjusted Mueller Hinton Broth 2, 5 × 10^5 CFU/mL, 37 °C, 20 h, range 64–0.125 µg/mL, average of three repeat assays
Experimental: as §1, §2, §3, §4, §5

[6] = system: S. epidermidis CW130500; conditions: for MIC: Staphylococcus epidermidis, CW130500, 20 h, read-out: Minimum inhibitory concentration S. epidermidis CW130500; for Minimum inhibitory concentration S. epidermidis CW130500: broth microdilution per CSLI guidelines, cation-adjusted Mueller Hinton Broth 2, 5 × 10^5 CFU/mL, 37 °C, 20 h, range 64–0.125 µg/mL, triplicate
Experimental: as §2, §3
(§6) Minimum Inhibitory Concentration (MIC) assays were conducted in 96-Well Clear polypropylene corner notch microplates (Corning, #11313595). For the assay media, cation adjusted Mueller Hinton Broth 2 (Sigma Aldrich, #90922) was used for the S. aureus, and S. epidermidis strains and Brain Heart Infusion broth (BD, #221812) was used for the E. faecalis and E. faecium […]
(§7) used, as well as melittin prepared by automated SPPS. Experimental bacterial strains used were procured from the American Type Culture collection (S. aureus 29213) and the Canadian Antimicrobial Resistance Alliance

[7] = system: E. faecalis CW133003; conditions: for Minimum inhibitory concentration E. faecalis CW133003: broth microdilution per CSLI guidelines, Brain Heart Infusion broth, 5 × 10^5 CFU/mL, 37 °C, 20 h, range 64–0.125 µg/mL, average of three repeat assays
Experimental: as §1, §2, §3, §4, §5

[8] = system: E. faecium CW130826; conditions: for Minimum inhibitory concentration E. faecium CW130826: broth microdilution per CSLI guidelines, Brain Heart Infusion broth, 5 × 10^5 CFU/mL, 37 °C, 20 h, range 64–0.125 µg/mL, triplicate
Experimental: as §2, §3, §6, §7

[9] = system: E. faecalis CW133346; conditions: for Minimum inhibitory concentration E. faecalis CW133346: broth microdilution per CSLI guidelines, Brain Heart Infusion broth, 5 × 10^5 CFU/mL, 37 °C, 20 h, range 64–0.125 µg/mL, triplicate
Experimental: as §2, §3, §6, §7

[10] = system: E. faecium CW131126; conditions: for Minimum inhibitory concentration E. faecium CW131126: broth microdilution per CSLI guidelines, Brain Heart Infusion broth, 5 × 10^5 CFU/mL, 37 °C, 20 h, range 64–0.125 µg/mL, triplicate
Experimental: as §2, §3, §6, §7

Compound | MIC [1] | MIC [2] | MIC [3] | MIC [4] | MIC [5] | MIC [6] | Minimum inhibitory concentration S. aureus AC29213 [1] | Minimum inhibitory concentration S. aureus CW114125 [2] | Minimum inhibitory concentration S. epidermidis CW131612 [3] | Minimum inhibitory concentration E. faecalis CW133003 [7] | Minimum inhibitory concentration S. aureus CW113379 [4] | Minimum inhibitory concentration S. aureus CW115852 [5] | Minimum inhibitory concentration E. faecium CW130826 [8] | Minimum inhibitory concentration E. faecalis CW133346 [9] | Minimum inhibitory concentration S. epidermidis CW130500 [6] | Minimum inhibitory concentration E. faecium CW131126 [10] | MIC ([7]; Enterococcus faecalis, CW133003, 20 h, read-out: Minimum inhibitory concentration E. faecalis CW133003) | MIC ([8]; Enterococcus faecium, CW130826, 20 h, read-out: Minimum inhibitory concentration E. faecium CW130826) | MIC ([9]; Enterococcus faecalis, CW133346, 20 h, read-out: Minimum inhibitory concentration E. faecalis CW133346) | MIC ([10]; Enterococcus faecium, CW131126, 20 h, read-out: Minimum inhibitory concentration E. faecium CW131126)
CC1(C)S[C@@H]2[C@H](NC(=O)[C@H](N)c3ccccc3)C(=O)N2[C@H]1C(=O)O [Ampicillin, ampicillin, reference compound] | 2 µg/mL (≈ 5.72 µM) | 16 µg/mL (≈ 45.8 µM) | > 64 µg/mL | 32 µg/mL (≈ 91.6 µM) | 4 µg/mL (≈ 11.4 µM) | 8 µg/mL (≈ 22.9 µM) | – | – | – | – | – | – | – | – | – | – | – | – | – | –
CC[C@H](C)[C@H](NC(=O)CN)C(=O)NCC(=O)N[C@@H](C)C(=O)N[C@H](C(=O)N[C@@H](CC(C)C)C(=O)N[C@@H](CCCCN)C(=O)N[C@H](C(=O)N[C@@H](CC(C)C)C(=O)N[C@H](C(=O)N[C@H](C(=O)NCC(=O)N[C@@H](CC(C)C)C(=O)N1CCC[C@H]1C(=O)N[C@@H](C)C(=O)N[C@@H](CC(C)C)C(=O)N[C@H](C(=O)N[C@@H](CO)C(=O)N[C@@H](Cc1c[nH]c2ccccc12)C(=O)N[C@H](C(=O)N[C@@H](CCCCN)C(=O)N[C@@H](CCCNC(=N)N)C(=O)N[C@@H](CCCCN)C(=O)N[C@@H](CCCNC(=N)N)C(=O)N[C@@H](CCC(N)=O)C(=O)N[C@@H](CCC(N)=O)C(N)=O)[C@@H](C)CC)[C@@H](C)CC)[C@@H](C)O)[C@@H](C)O)C(C)C)C(C)C [Melittin, melittin, reference compound] | – | – | – | – | – | – | 8 µg/mL (≈ 2.81 µM) | 8 µg/mL (≈ 2.81 µM) | 4 µg/mL (≈ 1.41 µM) | 16 µg/mL (≈ 5.62 µM) | 4 µg/mL (≈ 1.41 µM) | 4 µg/mL (≈ 1.41 µM) | 8 µg/mL (≈ 2.81 µM) | 16 µg/mL (≈ 5.62 µM) | 8 µg/mL (≈ 2.81 µM) | 8 µg/mL (≈ 2.81 µM) | – | – | – | –
CN(C)[C@@H]1C(O)=C(C(N)=O)C(=O)[C@@]2(O)C(O)=C3C(=O)c4c(O)cccc4[C@@](C)(O)[C@H]3C[C@@H]12 [Tetracycline, tetracycline, reference compound] | < 0.125 µg/mL | 32 µg/mL (≈ 72 µM) | 1 µg/mL (≈ 2.25 µM) | 16 µg/mL (≈ 36 µM) | 8 µg/mL (≈ 18 µM) | < 0.125 µg/mL | – | – | – | – | – | – | – | – | – | – | 1 µg/mL (≈ 2.25 µM) | 0.25 µg/mL (≈ 0.563 µM) | 64 µg/mL (≈ 144 µM) | > 64 µg/mL
MAGFLKVVQLLAKYGSKAVQLAWANKGKILDWLNAGQAIDWVVSKIKQILGIK-NH2 [L-W21L, L-lacticin Q W21L (Met^1-Lys^53)] | – | – | – | – | – | – | 16 µg/mL | 32 µg/mL | 16 µg/mL | 8 µg/mL | 16 µg/mL | 32 µg/mL | 4 µg/mL | 4 µg/mL | 16 µg/mL | 4 µg/mL | – | – | – | –
MAGFLKVVQLLAKYGSKAVQWALANKGKILDWLNAGQAIDWVVSKIKQILGIK-NH2 [L-W23L, L-lacticin Q W23L (Met^1-Lys^53)] | – | – | – | – | – | – | 32 µg/mL | > 64 µg/mL | 32 µg/mL | 4 µg/mL | 64 µg/mL | 64 µg/mL | – | 8 µg/mL | – | 4 µg/mL | – | – | – | –
MAGFLKVVQLLAKYGSKAVQWAWANKGKILDLLNAGQAIDWVVSKIKQILGIK-NH2 (C-terminus assumed) [L-W32L, L-lacticin Q W32L (Met^1-Lys^53)] | – | – | – | – | – | – | 64 µg/mL | 64 µg/mL | 16 µg/mL | 4 µg/mL | 32 µg/mL | 32 µg/mL | 2 µg/mL | 4 µg/mL | 16 µg/mL | 4 µg/mL | – | – | – | –
MAGFLKVVQLLAKYGSKAVQWAWANKGKILDWLNAGQAIDLVVSKIKQILGIK-NH2 (C-terminus assumed) [L-W41L, L-lacticin Q W41L (Met^1-Lys^53)] | – | – | – | – | – | – | > 64 µg/mL | > 64 µg/mL | > 64 µg/mL | 64 µg/mL | > 64 µg/mL | > 64 µg/mL | – | – | – | 8 µg/mL | – | – | – | –
MAGFLKVVQLLAKYGSKAVQWAWANKGKILDWLNAGQAIDWVVSKIKQILGIK-NH2 [L-LnqQ, L-lacticin Q (Met^1-Lys^53)] | – | – | – | – | – | – | 16 µg/mL | 32 µg/mL | 8 µg/mL | 2 µg/mL | 32 µg/mL | 64 µg/mL | 2 µg/mL | 4 µg/mL | 16 µg/mL | 2 µg/mL | – | – | – | –
MSLLNFLKYIAKYGKKAVSAAWKYKGKVLEWLNVGPTLEWVWQKLKKIAGL-NH2 [L-W3L, L-aureocin A53 W3L (Met^1-Leu^51)] | – | – | – | – | – | – | 4 µg/mL | 4 µg/mL | 4 µg/mL | 16 µg/mL | 4 µg/mL | 32 µg/mL | 2 µg/mL | 4 µg/mL | 4 µg/mL | 4 µg/mL | – | – | – | –
MSWLNFLKYIAKYGKKAVSAALKYKGKVLEWLNVGPTLEWVWQKLKKIAGL-NH2 [L-W22L, L-aureocin A53 W22L (Met^1-Leu^51)] | – | – | – | – | – | – | 2 µg/mL | 8 µg/mL | 4 µg/mL | 16 µg/mL | 16 µg/mL | 16 µg/mL | 2 µg/mL | 4 µg/mL | 8 µg/mL | 4 µg/mL | – | – | – | –
